One may read the IC50 as the midpoint of a concentration-inhibition curve. Lower therefore signals inhibition by little substance.

One assay deals with Balb/c mice. In words: IgE-dependent passive cutaneous anaphylaxis (Evans blue dye extravasation). The class given is in vivo. Particulars: 25 mg/kg i.p. twice at 1 hour intervals prior to antigen challenge; 30 minutes after challenge; vehicle 0.64±0.08. How it is done: The in vivo biologic activity of compound D-58 was examined in a well characterized murine model of passive cutaneous anaphylaxis. In order to induce passive cutaneous anaphylaxis, left ears of Balb/c mice were sensitized with 50 μg DNP-IgE intradermally. Right ears were injected with equal volumes of saline. Dorsal sides of the ears of Balb/c mice were injected intradermally with 50 μg of DNP-IgE (left ears) or PBS (right ears) using a 30-gauge needle (ref 28). Twenty hours later, mice were challenged with 100 μg antigen (DNP-BSA) in 200 μl 2% Evans blue dye intravenously. Control mice were given PBS (but not antigen) intravenously with 2% Evans blue. For quantitation of Evans blue dye extravasation as a measure of anaphylaxis-associated vascular hyperpermeability, 8 mm^2 skin specimens were removed from the ears of mice, minced in 2 ml formamide and incubated in a 80° C. water bath for 2 hours to extract the dye. The absorbance was read at 570 nm using a spectrophotometer.
For assessment of the vascular leak, animals were sacrificed 30 minutes after the antigen challenge. The plasma exudation was assessed by quantitation of the amount of Evan's blue dye extravasated into the ear skin 30 minutes after the antigen challenge. […]

The target of another assay is T1, BTK (Homo sapiens, UniProt Q06187).
T1 construct: made in house; host or cells: Sf21 insect cells (baculovirus)
In words: BTK tyrosine kinase assay. The note with it: 1 hour exposure. It is filed as biochemical. On the procedure: Sf21 (IPLB-SF21-AE) cells derived from the ovarian tissue of the fall armyworm Spodotera frugiperda, were obtained from Invitrogen and maintained at 26-28° C. in Grace's insect cell medium supplemented with 10% FBS and 1.0% antibiotic/antimycotic (GIBCO-BRL). Stock cells were maintained in suspension at 0.2-1.6×10^6/ml in 600 ml total culture volume in 1 L Bellco spinner flasks at 60-90 rpm. Cell viability was maintained at 95-100% as determined by trypan blue dye exclusion.
Sf21 cells were infected with a baculovirus expression vector for BTK or SYK, as previously described (refs 18 and 19). […]
Following electrophoresis, kinase gels were dried onto Whatman 3M filter paper and subjected to phosphoimaging on a Molecular Imager (Bio-Rad, Hercules, Calif.) as well as autoradiography on film. […] For each drug concentration, a BTK or SYK kinase activity index was determined by comparing the ratios of the kinase activity in phosphorimager units (PIU) and density of the protein bands in densitometric scanning units (DSU) to those of the baseline sample and using the formula: Activity Index=[PIU of kinase band/DSU of BTK/SYK protein band]test sample: [PIU of kinase band/DSU of BTK/SYK protein band]baseline control sample.

A further assay concerns RBL-2H3 mast cells. In words: IgE receptor/FcεRI-mediated mast cell LTC4 release. The class given is cell-based, rat. The note with it: 1 hour prior to DNP-BSA challenge; FIG. 3B. How it is done: Monolayers of RBL-2H3 rat mast cells were sensitized with monoclonal anti-DNP IgE antibody (0.24 mg/ml) for 1 hour at 37° C. in a 48-well tissue culture plate. Unbound IgE was removed by washing the cells with phosphate buffered saline. After washing, PIPES-buffered saline containing 1 mM calcium chloride was added to the monolayers of the RBL-2H3 cells. The cells were challenged with 20 ng/ml DNP-BSA for 30 minutes at 37° C. The plate was centrifuged at 200 g for 10 minutes at 4° C. and supernatants were saved. […]
To study the effects of compound D-58, RBL-2H3 cells were incubated with compound D-58 at the indicated concentrations or vehicle for 1 hour prior to antigen challenge. Mast cell degranulation (β-hexosaminidase release, % of total) was assessed by measuring the β-hexosaminidase levels in cell free supernatants and Triton X-100 solubilized pellets using the formula: β-hexosaminidase release, % of total=100×(β-hexosaminidase level in supernatant/β-hexosaminidase level in supernatant+solubilized pellet). […]
In order to examine the effects of compound D-58 on IgE receptor/FcεRI-mediated mast cell activation and mediator release, RBL-2H3 mast cells were exposed to increasing concentrations of this ethanone or vehicle prior to challenge with antigen (DNP-BSA). […] Mast cell β-hexosaminidase release (FIG. 3A) and LTC4 release (FIG. 3B) were measured. […]

T1 sequence (Q06187 whole entry, species assumed): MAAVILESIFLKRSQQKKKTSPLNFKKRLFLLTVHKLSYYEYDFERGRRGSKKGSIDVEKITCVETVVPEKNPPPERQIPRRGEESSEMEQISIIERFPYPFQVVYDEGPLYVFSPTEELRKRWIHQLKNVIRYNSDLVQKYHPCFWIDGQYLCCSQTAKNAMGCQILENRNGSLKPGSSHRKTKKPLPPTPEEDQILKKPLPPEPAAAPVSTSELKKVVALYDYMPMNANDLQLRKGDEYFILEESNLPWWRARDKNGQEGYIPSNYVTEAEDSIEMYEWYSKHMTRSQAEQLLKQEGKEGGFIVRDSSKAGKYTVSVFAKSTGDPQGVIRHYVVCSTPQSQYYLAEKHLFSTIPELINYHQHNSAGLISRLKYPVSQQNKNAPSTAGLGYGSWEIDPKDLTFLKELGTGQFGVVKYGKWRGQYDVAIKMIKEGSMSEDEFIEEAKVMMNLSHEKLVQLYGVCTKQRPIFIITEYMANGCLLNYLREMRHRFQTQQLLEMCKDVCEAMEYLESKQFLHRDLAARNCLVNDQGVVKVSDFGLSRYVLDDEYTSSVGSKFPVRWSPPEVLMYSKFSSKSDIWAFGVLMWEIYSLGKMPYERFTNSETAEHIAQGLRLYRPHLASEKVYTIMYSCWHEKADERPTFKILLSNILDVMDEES

Take `COc1ccc(CC(=O)c2c(O)cc(O)cc2O)cc1` [Compound D-58]: in the assay on Balb/c mice, the “Evans blue dye extravasation in DNP-IgE injected ears, Absorbance at 570 nm” value is given as 0.26±0.02. For the same compound, the concentration for half-maximal inhibition (IC50) against BTK (first experiment, FIG. 1A) is 18.6 µM; against BTK (second experiment, FIG. 1C) it was 35.5 µM. In addition, in the assay on RBL-2H3 mast cells, the “IgE/antigen induced LTC4 release” value was “inhibited”.
